Columns and labels:
Test in all cases: Herbicidal activity, pot culture method (primary and secondary screening test)
Assay type in all cases: in vivo
Conditions in all cases: primary screening, pot culture, 150 g/ha, sprayed at 3-leaf stage, result 15 days later
amaranthus retroflexus = tested on: amaranthus retroflexus
Summary of the method: (§1)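 Post-emergence pot test: 3-leaf-stage weeds, tower spray of 0.2 g/L solution (DMF stock, water dilution) at 150 g/ha, greenhouse, inhibition (%) scored at 15 days. Secondary screen at a reduced dose.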

eclipta prostrata = tested on: eclipta prostrata
Summary of the method: as §1

digitaria sanguinalis = tested on: digitaria sanguinalis
Summary of the method: as §1

echinochloa crusgalli = tested on: echinochloa crusgalli
Summary of the method: as §1

abutilon theophrasti = tested on: abutilon theophrasti
Summary of the method: as §1

setaria viridis = tested on: setaria viridis
Summary of the method: as §1

Row | SMILES | herbicidal activity inhibition ratio (%), Amaranthus retroflexus (amaranthus retroflexus) | herbicidal activity inhibition ratio (%), Eclipta prostrata (eclipta prostrata) | herbicidal activity inhibition ratio (%), Digitaria sanguinalis (digitaria sanguinalis) | herbicidal activity inhibition ratio (%), Echinochloa crusgalli (echinochloa crusgalli) | herbicidal activity inhibition ratio (%), Abutilon theophrasti (abutilon theophrasti) | herbicidal activity inhibition ratio (%), Setaria viridis (setaria viridis)
1 | Cn1c(=O)n(-c2cccc(Cl)c2)c(=O)c2cc(C(=O)C3=C(O)CCCC3=O)ccc21 [Compound 3] | 100% | 80% | 70% | 80% | 80% | 100%
2 | Cn1c(=O)n(-c2ccc([N+](=O)[O-])cc2)c(=O)c2cc(C(=O)C3=C(O)CC(C)(C)CC3=O)ccc21 [Compound 53] | 80% | 80% | 25% | 0% | 100% | 80%
3 | C#CCn1c(=O)n(-c2ccccc2C)c(=O)c2cc(C(=O)C3=C(O)CCCC3=O)ccc21 [Compound 77] | 90% | 35% | 0% | 50% | 90% | 20%
4 | CC(C)c1ccccc1-n1c(=O)c2cc(C(=O)C3=C(O)CCCC3=O)ccc2n(C)c1=O [Compound 97] | 100% | 90% | 50% | 55% | 98% | 50%
5 | Cn1c(=O)n(-c2c(Cl)cccc2Cl)c(=O)c2cc(C(=O)C3=C(O)CC(C)(C)CC3=O)ccc21 [Compound 94] | 95% | 98% | 88% | 93% | 95% | 95%
6 | COc1cccc(Cn2c(=O)n(-c3ccccc3C)c(=O)c3cc(C(=O)C4=C(O)CC(C)(C)CC4=O)ccc32)c1 [Compound 81] | 0% | 0% | 0% | 0% | 0% | 10%
7 | Cn1c(=O)n(-c2ccc([N+](=O)[O-])cc2)c(=O)c2cc(C(=O)C3=C(O)CCCC3=O)ccc21 [Compound 45] | 90% | 83% | 40% | 50% | 60% | 10%
8 | Cc1cc(C)c(-n2c(=O)c3cc(C(=O)C4=C(O)CCCC4=O)ccc3n(C)c2=O)c(C)c1 [Compound 67] | 80% | 0% | 80% | 83% | 95% | 80%
9 | CC1CC(=O)C(C(=O)c2ccc3c(c2)c(=O)n(-c2ccccc2)c(=O)n3C)=C(O)C1 (stereo not drawn) [Compound 42] | 100% | 83% | 93% | 88% | 98% | 60%
10 | Cn1c(=O)n(-c2ccc(Cl)cc2)c(=O)c2cc(C(=O)C3=C(O)CCCC3=O)ccc21 [Compound 1, 3-(4-chlorphenyl)-6-[(2-hydroxy-6-oxo-1-cyclohexenyl)carbonyl]-1-methylquinazoline-2,4(1H,3H)-dione] | 90% | 85% | 90% | 90% | 90% | 100%
11 | Cn1c(=O)n(-c2ccccc2F)c(=O)c2cc(C(=O)C3=C(O)CC(C)(C)CC3=O)ccc21 [Compound 13] | 100% | 90% | 90% | 90% | 100% | 100%
12 | Cn1c(=O)n(-c2ccccc2)c(=O)c2cc(C(=O)C3=C(O)CCCC3=O)ccc21 [Compound 35] | 100% | 70% | 65% | 65% | 80% | 50%
13 | COc1ccccc1-n1c(=O)c2cc(C(=O)C3=C(O)CC(C)(C)CC3=O)ccc2n(C)c1=O [Compound 48] | 95% | 85% | 85% | 85% | 50% | 50%
14 | CC1CC(=O)C(C(=O)c2ccc3c(c2)c(=O)n(-c2ccc(Br)cc2)c(=O)n3C)=C(O)C1 (stereo not drawn) [Compound 90] | 20% | 83% | 93% | 90% | 92.5% | 85%
15 | Cn1c(=O)n(-c2cccc(C(F)(F)F)c2)c(=O)c2cc(C(=O)C3=C(O)CCCC3=O)ccc21 [Compound 52] | 98% | 75% | 50% | 85% | 55% | 80%
16 | Cc1ccc(-n2c(=O)c3cc(C(=O)C4=C(O)CCCC4=O)ccc3n(C)c2=O)cc1 [Compound 14] | 100% | 75% | 75% | 75% | 75% | 75%
17 | Cc1cccc(-n2c(=O)c3cc(C(=O)C4=C(O)CC(C)(C)CC4=O)ccc3n(C)c2=O)c1 [Compound 18] | 100% | 75% | 90% | 70% | 75% | 85%
18 | Cn1c(=O)n(-c2ccc(Br)cc2)c(=O)c2cc(C(=O)C3=C(O)CCCC3=O)ccc21 [Compound 25] | 95% | 83% | 80% | 80% | 80% | 35%
19 | Cn1c(=O)n(-c2cccc(Br)c2)c(=O)c2cc(C(=O)C3=C(O)CC(C)(C)CC3=O)ccc21 [Compound 24] | 80% | 83% | 60% | 30% | 93% | 10%
20 | COc1ccccc1-n1c(=O)c2c(C)c(C(=O)C3=C(O)CCCC3=O)ccc2n(C)c1=O [Compound 88] | 100% | 100% | 100% | 100% | 100% | 100%
21 | Cc1ccccc1-n1c(=O)c2cc(C(=O)C3=C(O)CCCC3=O)ccc2n(C)c1=S [Compound 86] | 0% | 30% | 30% | 85% | 20% | 10%
22 | Cc1ccccc1-n1c(=O)c2cc(C(=O)C3=C(O)CCCC3=O)ccc2n(CC(C)C)c1=O [Compound 75] | 20% | 20% | 0% | 0% | 90% | 10%
23 | CCCn1c(=O)n(-c2ccccc2C)c(=O)c2cc(C(=O)C3=C(O)CC(C)(C)CC3=O)ccc21 [Compound 72] | 20% | 60% | 20% | 30% | 100% | 30%

From patent publication US9771334B2, “Triketone compound and preparation method and use thereof” (SHANDONG CYNDA CHEMICAL CO., LTD., priority 2013, dated 2017)
